Assays:
[1] = Stability in mouse liver homogenates (QC samples); format: physicochemical
Excerpt: using octa-deuterated internal standards of SN30000, M13 and M14 synthesised as previously reported (Wang et al., 2012). Intra- and inter-day precision (expressed as relative standard deviation (RSD) and accuracy (expressed as percentage of the nominal value) were deter mined by analy sis of replicates (n=6) of low and high quality control (QC) samples on three different days. The lower limit of quantitation (LLOQ) was defined as the lowest concentration providing RSD and accuracy < 20%. Recovery from plasma and liver ho mogenates was tested at the three QC levels. The recoveries were evaluated by comparing extracted samples with blank extracted solutions spiked with analytes of the same amount.
Matrix effects, defined as the change in response due to the presence of other substances in the samples, were evaluated by comparing the analytes diluted into the blank plasma or liver extracted solution with that of the same stock solutions diluted in water. Three different concentration levels (low, medium and high QC) were evaluated by analysing three samples at each level. Accuracy , precision, recovery and matrix effects were all acceptable over the concentration ranges evaluated for plas ma (Supplementary Table 1) and for liver homogenates (Supplementary Table 2).
Stability of the analytes in mouse plasma (Supplementary Table 3) or liver homogenate (Supplementary Table 4) was confirmed during holding of QC samples on ice for up to 2 h under nor mal laboratory lighting, although there was a trend towards loss of SN30000 in plasma samples held in clear microcentrifuge tubes which may reflect the known photosensitivity of the compound (Gu et al., 2014). This loss was reduced by use of red microcentrifuge tubes, and eliminated by black tubes. Stability in both matrices was also confir med for one month storage at -80°C and for three freeze-thaw cycles, while MeOH-deproteinised samples w ere stable for 12 h at 4°C in the autosampler (Supplementary Tables

[2] = in vivo; conditions: NIH-III nude, mouse, plasma, iv
Method: SN30000, M14 and M18 dosing solutions were prepared fresh in normal saline, filtered through 0.45 μm Acrodisc filters (Pall Life Sciences, Port Washington, NY, United States), protected from light in amber vials, and used within 3 h. Doses are expressed as mg of free base equivalent for SN30000 and M14, and free acid in the case of M18. […] Blood samples were collected from mice at various times by cardiac puncture, seconds after cervical dislocation, into ice-cold tubes containing K2EDTA. These were placed on ice immediately after collection and centrifuged (3,000 g, 3 min) within 10 min to harvest plasma. Plasma and tissues were rapidly frozen in liquid nitrogen before storage at -80°C for subsequent bioanalysis.
M18 was quantified by absorbance detection with reference to an external standard calibration curve.
Concentration-time data were analyzed by non-compartmental analysis using Phoenix WinNonlin (ver 6.4, Build 6.4.0768 Pharsight, United States); all AUC values were extrapolated to infinity using the linear trapezoidal rule. […] Model fits were further assessed by visual inspection of the residuals and predicted PK.

[3] = in vivo; conditions: NIH-III, mouse, plasma, ip
Method: SN30000, M14 and M18 dosing solutions were prepared fresh in normal saline, filtered through 0.45 μm Acrodisc filters (Pall Life Sciences, Port Washington, NY, United States), protected from light in amber vials, and used within 3 h. Doses are expressed as mg of free base equivalent for SN30000 and M14, and free acid in the case of M18. […] For evaluation of acute toxicity, mice were observed continuously for 3 h after dosing, and their activity rated on a lethargy score from 0 representing no change in activity to 5 representing animals that were moribund and required culling. For MTD studies, the animals were checked daily for clinical signs of toxicity and body weight change for 2 weeks. In some studies rectal temperature changes after dosing were measured using a BAT-12 digital microprobe thermometer (Physitemp Instruments, Clifton, NJ, United States) at the times specified in the figures. Blood samples were collected from mice at various times by cardiac puncture, seconds after cervical dislocation, into ice-cold tubes containing K2EDTA. These were placed on ice immediately after collection and centrifuged (3,000 g, 3 min) within 10 min to harvest plasma. Plasma and tissues were rapidly frozen in liquid nitrogen before storage at -80°C for subsequent bioanalysis.
(§1) Concentration-time data were analyzed by non-compartmental analysis using Phoenix WinNonlin (ver 6.4, Build 6.4.0768 Pharsight, United States); all AUC values were extrapolated to infinity using the linear trapezoidal rule. A compartmental model for plasma PK after dosing with SN30000 or M14 was fitted using Phoenix NLME v1.3 with random effects on the metabolite volumes of distribution, and temperature effects based on the observed body temperature at the last measurement time. Temperature effects were added or removed until there was no significant change in the log likelihood. Model fits were further assessed by visual inspection of the residuals and predicted PK.

[4] = Plasma, liver and brain PK after i.p. dosing with M14; format: in vivo; conditions: i.p. M14 135 mg/kg; for half-life: read-out: Terminal T1/2
Method: as §1

[5] = Compartmental plasma PK model; format: in vivo
Excerpt: This model, shown schematically in Figure 9, is based on total (free + bound) plasma concentrations; the major metabolites (M14, M13, and M18) are explicit and clearance of SN30000 occurs only by reduction to M14. The i.p. bioavailability of SN30000 was modeled with an additional term for loss from the peritoneal compartment (kloss).

[6] = liver homogenate deproteinised in 3 vol MeOH, 12 h autosampler at 4°C, nominal SN30000 0.5, M14 0.25, M13 0.1 µM
[7] = liver homogenate deproteinised in 3 vol MeOH, 12 h autosampler at 4°C, nominal SN30000 5, M14 2.5, M13 1 µM
[8] = liver homogenate deproteinised in 3 vol MeOH, 12 h autosampler at 4°C, nominal SN30000 50, M14 25, M13 10 µM
[9] = liver homogenate, 1 month at -80°C, nominal SN30000 5, M14 2.5, M13 1 µM
[10] = liver homogenate, 1 month at -80°C, nominal SN30000 50, M14 25, M13 10 µM
[11] = liver homogenate, 1h on ice, clear tubes, nominal SN30000 0.5, M14 0.25, M13 0.1 µM
[12] = liver homogenate, 1h on ice, clear tubes, nominal SN30000 5, M14 2.5, M13 1 µM
[13] = liver homogenate, 1h on ice, clear tubes, nominal SN30000 50, M14 25, M13 10 µM
[14] = liver homogenate, 2h on ice, nominal SN30000 0.5, M14 0.25, M13 0.1 µM
[15] = liver homogenate, 2h on ice, nominal SN30000 5, M14 2.5, M13 1 µM
[16] = liver homogenate, 2h on ice, nominal SN30000 50, M14 25, M13 10 µM
[17] = liver homogenate, three freeze-thaw cycles, nominal SN30000 0.5, M14 0.25, M13 0.1 µM
[18] = liver homogenate, three freeze-thaw cycles, nominal SN30000 5, M14 2.5, M13 1 µM
[19] = liver homogenate, three freeze-thaw cycles, nominal SN30000 50, M14 25, M13 10 µM

## c1c2c(cc3nc(CCCN4CCOCC4)nnc13)CCC2 [M13]
[1]; [6]
  Bias: 7.07%
  Measured conc: 0.11 µM
[1]; [7]
  Bias: 10.75%
  Measured conc: 1.11 µM
[1]; [8]
  Bias: 6.40%
  Measured conc: 10.64 µM
[1]; liver homogenate, 1 month at -80°C, nominal SN30000 0.5, M14 0.25, M13 0.1 µM
  Measured conc: 0.11 µM
[1]; [9]
  Bias: 4.04%
  Measured conc: 1.03 µM
[1]; [10]
  Bias: 5.05%
  Measured conc: 9.12 µM
[1]; [11]
  Bias: 11.64%
  Measured conc: 0.11 µM
[1]; [12]
  Bias: 10.33%
  Measured conc: 1.10 µM
[1]; [13]
  Bias: 7.77%
  Measured conc: 10.78 µM
[1]; [14]
  Bias: 2.48%
  Measured conc: 0.10 µM
[1]; [15]
  Bias: 3.25%
  Measured conc: 1.03 µM
[1]; [16]
  Bias: 1.11%
  Measured conc: 10.11 µM
[1]; [17]
  Bias: -7.15%
  Measured conc: 0.093 µM
[1]; [18]
  Bias: -4.26%
  Measured conc: 0.96 µM
[1]; [19]
  Bias: 5.64%
  Measured conc: 10.56 µM
[2]; 1.86 mg/kg
  AUC: 0.0047 µM·h
  half-life: 27.7 min
[2]; 18.6 mg/kg
  AUC: 0.146 µM·h
  half-life: 47.1 min
[2]; 78.3 mg/kg
  AUC: 3.34 µM·h
  half-life: 38.9 min
[3]; 1.86 mg/kg
  AUC: 0.0029 µM·h
  Cmax: 0.008 µM
  half-life: 19.8 min
[3]; 18.6 mg/kg
  AUC: 0.079 µM·h
  Cmax: 0.202 µM
  half-life: 39.1 min
[3]; 78.3 mg/kg
  AUC: 2.64 µM·h
  Cmax: 3.85 µM
  half-life: 31.8 min
[3]; 92.8 mg/kg
  AUC: 5.43 µM·h
  Cmax: 6.63 µM
  half-life: 26.2 min
[3]; 186 mg/kg
  AUC: 14.3 µM·h
  half-life: 53.3 min
[4]; NIH-III nude, mouse, ip, brain
  half-life: 26 min
[4]; NIH-III nude, mouse, ip, liver
  half-life: 32.7 min
[4]; NIH-III nude, mouse, ip, plasma, read-out: Cmax
  Cmax: 4 ± 0.63 µM
[4]; NIH-III nude, mouse, ip, plasma
  half-life: 40 min
[4]; brain
  AUC: 5.3 µmol·h/kg
  Cmax: 11.0 ± 1.6 µmol/kg
[4]; liver
  AUC: 14.9 µmol·h/kg
  Cmax: 34.1 ± 5.4 µmol/kg
[4]; plasma
  AUC: 1.79 µmol·h/kg
[5]; 1-Oxide and Nor-oxide values fixed
  Central compartment volume V1: 2.2 L/kg
[5]; NIH-III, mouse, plasma, other: i.p. and i.v. datasets fitted simultaneously, model clearance of the compound, read-out: CL (converted)
  clearance: 1280 mL/min/kg
[5]; NIH-III, mouse, plasma, other: i.p. and i.v. datasets fitted simultaneously, read-out: Steady state volume VSS
  Vd: 11.6 L/kg
[5]; mouse, in vivo
  Approximate % suppression per °C of CL: ~23%
  Peripheral compartment volume V2: 9.38 L/kg

— publication PMC5554537 (Frontiers in Pharmacology, 2017)
